# Assay results as given in US20240277717A1, “APPLICATION OF GANCICLOVIR IN PREPAPRATION OF MEDICINE FOR TREATING ALLERGIC RHINITIS” (Union Hospital, Tongji Medical College, Huazhong University …, priority 2023, published 2024).
# Entries after “also recorded” stand apart in the source; their conditions may differ.
# Assays:
# [1] = test system: peripheral blood mononuclear cells (PBMCs); experiment: GCV medicine test of the PBMCs in vitro (flow cytometry); type: cell-based, human; details: 400 μM GCV, 48 hours
# Procedure: The peripheral blood of patients with the intractable AR is collected. The peripheral blood mononuclear cells (PBMCs) are isolated within 8 hours using a lymphocyte separation medium (MP biomedicals) and suspended in Roswell Park Memorial Institute (RPMI) 1640 medium (Gibco™) containing 10% heat-inactivated fetal bovine serum (Gibco™, Grand Island) and 1% penicillin and streptomycin (Gibco™) at a density of 1×10^6/mL. Three wells are set for each sample, including: a non treated well (also referred to as NT well), a well adding 1 microliter (μL) dimethyl sulfoxide (DMSO; Solarbio®) (also referred to as DMSO well), and a well adding 400 micromoles per liter (μM) of the GCV (diluted with DMSO, Selleck) (also referred to as GCV well). The PBMCs are cultured in a 24-well cell culture plate (Corning®, NY) under different stimulations in a 5% CO2, 37° C. cell incubator. According to the instructions of Leukocyte Activation Cocktail with BD GolgiPlug™ (BD Bioscience), the PBMCs are added to a cell culture medium 4-6 hours before dyeing to improve the dyeing effect of intracellular cytokines. After 48 hours of cell culture, the cell solution is collected and dyed with anti-human fixable viability stain 510 (FVS-BV510), brilliant violet 605 anti-human cluster of differentiation 4 antibody (CD4-BV605), and […] isothiocyanate isomer I (CD8-FITC), and then dyed with interleukin-4-brilliant violet™ 421 dyes (IL-4-BV421), interleukin-17A-phycoerythrin (IL-17A-PE), human interferon-gamma-PE-cyanine7 dye (IFNγ-PE-Cy7), and FOXP3-BB700 (all from BD Bioscience) after breaking the nucleus with a fixed nuclear breaker (eBioscience™). BD LSRFortessa™ X-20 (BD Biosciences, USA) and FlowJo™ software (FlowJo, Ashland, OR USA) are used for analysis.
# [2] = test system: IL-2, IL-4, IL-5, IL-6, IL-13, IL-17A, IL-28A, IL-33, IFN-α, IFN-β, IFN-γ, IFN-λ, Eotaxin in the nasal secretions; experiment: Cytokine levels in the nasal secretions measured by Luminex; type: in vivo, human; details: for IL-2 in nasal secretions, after treatment: mean ± SD
# Procedure: Two pieces of 1.0 centimeter (cm)×1.5 cm sterile medical sponge are gently placed into the patient's bilateral nasal cavity for 1-5 minutes (min). After the sponge adsorbs enough the nasal secretions, the sponge is gently removed and put into a 2 milliliters (mL) syringe. The nasal secretions are squeezed out and collected in a 1.5 mL centrifuge tube, centrifuged at 3000 revolutions per minute (rpm) for 5 min, and the supernatant is taken and placed in a refrigerator at −80° C. for testing. Eosinophil cationic protein (ECP) in the nasal secretions is detected by enzyme-linked immunosorbent assay (ELISA). The ECP-ELISA kit is from Zhongmin Taike Biotechnology Co., Ltd. Cytokine levels of interleukin (IL)-2, IL-4, IL-5, IL-6, IL-13, IL-17A, IL-28A, IL-33, interferon (IFN)-α, IFN-β, IFN-γ, IFN-λ, and Eotaxin in the nasal secretions are measured by using Luminex (R&D; LXSAHM-13).
# [3] = PBMCs of GCV effective and ineffective groups
smiles,measurement,setting,value
"Nc1nc(O)c2ncn(COC(CO)CO)c2n1 [GCV, Ganciclovir]","percentage of CD4+IFNγ+ cells, change",[1]; [3],no significant change
same,"percentage of CD4+IL4+ cells, change",[1]; [3],no significant change
same,"percentage of CD4+IL17A+ cells, change",[1]; [3],no significant change
same,"percentage of CD8+IFNγ+ cells/CD4+, change",[1]; [3],no significant change
same,"percentage of CD4+FOXP3+ cells/CD4+ cells, GCV well vs DMSO well","[1]; PBMCs of GCV effective group n=26, p<0.001",significantly increased; also recorded: significantly higher
same,"percentage of CD4+FOXP3+ cells/CD4+ cells, GCV well vs DMSO well","[1]; PBMCs of GCV ineffective group n=14, p<0.05",significantly lower
same,"all cytokines and inflammatory factors in nasal secretions, change after GCV treatment",[2]; GCV effective group and GCV ineffective group,do not change
same,"IFN-β in nasal secretions, after treatment","[2]; GCV effective group, before 26.49 ± 26.34",38.86 ± 54.29 pg/mL
same,"IFN-α in nasal secretions, after treatment","[2]; GCV effective group, before 31.09 ± 28.65",32.77 ± 23.83 pg/mL
same,"IL-6 in nasal secretions, after treatment","[2]; GCV effective group, before 39.10 ± 34.59",30.44 ± 27.04 pg/mL
same,"IL-17A in nasal secretions, after treatment","[2]; GCV effective group, before 55.38 ± 27.4",58.92 ± 43.93 pg/mL
same,"IL-4 in nasal secretions, after treatment","[2]; GCV effective group, before 109.67 ± 23.95",105.32 ± 25.44 pg/mL
same,"IFN-γ in nasal secretions, after treatment","[2]; GCV effective group, before 181.83 ± 266.06",120.24 ± 116.93 pg/mL
same,"IL-5 in nasal secretions, after treatment","[2]; GCV effective group, before 197.49 ± 388.67",134.24 ± 172.57 pg/mL
same,"Eotaxin in nasal secretions, after treatment","[2]; GCV effective group, before 206.5 ± 212.85",153.51 ± 101.87 pg/mL
same,"IL-33 in nasal secretions, after treatment","[2]; GCV effective group, before 277.39 ± 303.34",293.62 ± 396.68 pg/mL
same,"IFN-λ in nasal secretions, after treatment","[2]; GCV effective group, before 313.99 ± 194.7",331.23 ± 237.77 pg/mL
same,"IL-13 in nasal secretions, after treatment","[2]; GCV effective group, before 455.81 ± 190.16",397.80 ± 116.61 pg/mL
same,"IL-28A in nasal secretions, after treatment","[2]; GCV effective group, before 718.08 ± 263.12",740.68 ± 214.99 pg/mL
same,"IL-2 in nasal secretions, after treatment","[2]; GCV effective group, before 148.69 ± 43.59",132.85 ± 40.51 pg/mL
same,"IFN-β in nasal secretions, after treatment","[2]; GCV ineffective group, before 19.58 ± 12.05",17.86 ± 8.57 pg/mL
same,"Eotaxin in nasal secretions, after treatment","[2]; GCV ineffective group, before 36.79 ± 25.41",50.35 ± 47.92 pg/mL
same,"IL-6 in nasal secretions, after treatment","[2]; GCV ineffective group, before 49.62 ± 10.4",65.53 ± 44.86 pg/mL
same,"IL-17A in nasal secretions, after treatment","[2]; GCV ineffective group, before 59.88 ± 40.6",48.13 ± 18.73 pg/mL
same,"IFN-γ in nasal secretions, after treatment","[2]; GCV ineffective group, before 106.77 ± 51.92",80.25 ± 44.49 pg/mL
same,"IFN-α in nasal secretions, after treatment","[2]; GCV ineffective group, before 129.83 ± 170.32",57.51 ± 49.01 pg/mL
same,"IL-4 in nasal secretions, after treatment","[2]; GCV ineffective group, before 151.81 ± 71.34",116.44 ± 53.74 pg/mL
same,"IL-5 in nasal secretions, after treatment","[2]; GCV ineffective group, before 218.52 ± 189.78",70.26 ± 57.39 pg/mL
same,"IFN-λ in nasal secretions, after treatment","[2]; GCV ineffective group, before 371.83 ± 248.73",363.86 ± 203.72 pg/mL
same,"IL-13 in nasal secretions, after treatment","[2]; GCV ineffective group, before 382.32 ± 104.87",282.34 ± 55.29 pg/mL
same,"IL-28A in nasal secretions, after treatment","[2]; GCV ineffective group, before 392.09 ± 218.69",447.41 ± 202.35 pg/mL
same,"IL-33 in nasal secretions, after treatment","[2]; GCV ineffective group, before 583.28 ± 515.20",436.61 ± 500.63 pg/mL
same,"IL-2 in nasal secretions, after treatment","[2]; GCV ineffective group, before 139.75 ± 59.26",125.13 ± 58.88 pg/mL
